Values joined by “and” are separate entries in the source; they are usually repeats but may differ in a detail not shown here. Equal values may be shown once.
Tested on: ANGIOTENSIN II (AII) VASOPRESSOR RESPONSE
Assay: AII Challenge: angiotensin II (AII) vasopressor response in conscious rats
Type: in vivo
Parameters: Response After AII / Change / Average Change: unit not given here
Details: for Response After AII / Change / Control Before AII: individual rat; for Control Before AII: in mmHg (unit assumed); for % Inhibition / Average Change: n = 2
Description: By administering a compound of this invention to a rat, and then challenging with angiotensin II, a blockage of the vasopressor response is realized.
Conscious Male Okamoto-Aoki SHR, 16-20 weeks old, weighing approximately 330 g are purchased from Charles River Labs (Wilmington, Mass.). Conscious rats are restrained in a supine position with elastic tape. The area at the base of the tail is locally anesthetized by subcutaneous infiltration with 2% procaine. The ventral caudal artery and vein are isolated, and a cannula made of polyethylene (PE) 10-20 tubing (fused together by heat) is passed into the lower abdominal aorta and vena cava, respectively. The cannula is secured, heparinized (1,000 I.U./ml), sealed and the wound is closed. The animals are placed in plastic restraining cages in an upright position. The cannula is attached to s Statham P23Db pressure transducer, and pulsatile blood pressure is recorded to 10-15 minutes with a Gould Brush recorder. (Chan et al., (Drug Development Res., 18:75-94, 1989).
Angiotensin II (human sequence, Sigma Chem. Co., St. Louis, Mo.) of 0.05 and 0.1 ug/kg i.v. is injected into all rats (predosing response.). Then a test compound, vehicle or a known angiotensin II antagonist is administered i.v., i.p. or orally to each set of rats. The two doses of angiotensin II are given to each rat again at 30, 60, 90, 120, 180, 240 and 300 minutes post dosing the compound or vehicle. The vasopressor response of angiotensin II by a compound is calculated using the vasopressor response (increase in systolic blood pressure) of angiotensin II of each rat predosing the compound as 100%. A compound is considered active if at 30 mg/kg i.v. it antagonized at least 50% of the response.

[1] = 10 mg/kg i.v., AII 0.05 mcg/kg, 30 min post dose
[2] = 10 mg/kg i.v., AII 0.05 mcg/kg, 30 min post dose, listed as Ex. 10
[3] = 10 mg/kg i.v., AII 0.05 mcg/kg, 60 min post dose
[4] = 10 mg/kg i.v., AII 0.05 mcg/kg, 60 min post dose, listed as Ex. 10
[5] = 10 mg/kg i.v., AII 0.1 mcg/kg, 30 min post dose
[6] = 10 mg/kg i.v., AII 0.1 mcg/kg, 30 min post dose, listed as Ex. 10
[7] = 10 mg/kg i.v., AII 0.1 mcg/kg, 60 min post dose
[8] = 10 mg/kg i.v., AII 0.1 mcg/kg, 60 min post dose, listed as Ex. 10
[9] = 20 mg/kg i.v., AII 0.05 mcg/kg, 90 min post dose
[10] = 20 mg/kg i.v., AII 0.05 mcg/kg, 90 min post dose, listed as Ex. 10
[11] = 20 mg/kg i.v., AII 0.05 mcg/kg, 120 min post dose
[12] = 20 mg/kg i.v., AII 0.05 mcg/kg, 120 min post dose, listed as Ex. 10
[13] = 20 mg/kg i.v., AII 0.05 mcg/kg, 180 min post dose
[14] = 20 mg/kg i.v., AII 0.05 mcg/kg, 180 min post dose, listed as Ex. 10
[15] = 20 mg/kg i.v., AII 0.05 mcg/kg, 240 min post dose
[16] = 20 mg/kg i.v., AII 0.05 mcg/kg, 240 min post dose, listed as Ex. 10
[17] = 20 mg/kg i.v., AII 0.05 mcg/kg, 300 min post dose, listed as Ex. 10
[18] = 20 mg/kg i.v., AII 0.05 mcg/kg, 300 min post dose
[19] = 20 mg/kg i.v., AII 0.1 mcg/kg, 90 min post dose
[20] = 20 mg/kg i.v., AII 0.1 mcg/kg, 90 min post dose, listed as Ex. 10
[21] = 20 mg/kg i.v., AII 0.1 mcg/kg, 120 min post dose
[22] = 20 mg/kg i.v., AII 0.1 mcg/kg, 120 min post dose, listed as Ex. 10
[23] = 20 mg/kg i.v., AII 0.1 mcg/kg, 180 min post dose, listed as Ex. 10
[24] = 20 mg/kg i.v., AII 0.1 mcg/kg, 180 min post dose
[25] = 20 mg/kg i.v., AII 0.1 mcg/kg, 240 min post dose, listed as Ex. 10
[26] = 20 mg/kg i.v., AII 0.1 mcg/kg, 240 min post dose
[27] = 20 mg/kg i.v., AII 0.1 mcg/kg, 300 min post dose
[28] = 20 mg/kg i.v., AII 0.1 mcg/kg, 300 min post dose, listed as Ex. 10

SMILES: CCCCc1nc2cc(-c3ccccc3)nn2c(=O)n1Cc1ccc(-c2ccccc2-c2nnn[nH]2)cc1 [Example 10, 2-Butyl-7-phenyl-3-[[2'-(1H-tetrazol-5-yl)[1,1'-biphenyl]-4-yl]methyl]pyrazolo[1,5-a]-1,3,5-triazin-4(3H)-one]
- Response After AII [1]: 235
- Change [2]: 15 and 5
- Response After AII [2]: 215
- Control Before AII [2]: 220 and 210
- % Inhibition [1]: 80%
- Average Change [1]: 10
- Control Before AII [3]: 210
- Change [4]: 45 and 15
- Response After AII [4]: 255 and 230
- Control Before AII [4]: 215
- % Inhibition [3]: 40%
- Average Change [3]: 30
- Response After AII [5]: 245
- Control Before AII [5]: 210
- Change [6]: 35 and 5
- Response After AII [6]: 215
- % Inhibition [5]: 60%
- Average Change [5]: 20
- Response After AII [7]: 250
- Change [8]: 40 and 10
- Response After AII [8]: 215
- Control Before AII [8]: 210 and 205
- % Inhibition [7]: 50%
- Average Change [7]: 25
- Change [9]: 10
- Response After AII [10]: 205 and 215
- Control Before AII [10]: 195 and 205
- % Inhibition [9]: 80%
- Average Change [9]: 10
- Response After AII [11]: 210
- Change [12]: 10 and 20
- Response After AII [12]: 185
- Control Before AII [12]: 175 and 190
- % Inhibition [11]: 70%
- Average Change [11]: 15
- Control Before AII [13]: 185
- Change [14]: 10 and 25
- Response After AII [14]: 195 and 210
- % Inhibition [13]: 65%
- Average Change [13]: 17.5
- Response After AII [15]: 190
- Change [16]: 10 and 5
- Response After AII [16]: 205
- Control Before AII [16]: 195 and 185
- % Inhibition [15]: 85%
- Average Change [15]: 7.5
- Change [17]: 30 and 15
- Response After AII [17]: 220 and 195
- Control Before AII [17]: 190 and 180
- % Inhibition [18]: 55%
- Average Change [18]: 22.5
- Response After AII [19]: 210
- Change [20]: 10 and 0
- Response After AII [20]: 215
- Control Before AII [20]: 205 and 210
- % Inhibition [19]: 90%
- Average Change [19]: 5
- Response After AII [21]: 200
- Change [22]: 5 and 10
- Response After AII [22]: 205
- Control Before AII [22]: 200 and 190
- % Inhibition [21]: 85%
- Average Change [21]: 7.5
- Change [23]: 20 and 15
- Response After AII [23]: 210 and 200
- Control Before AII [23]: 190 and 185
- % Inhibition [24]: 65%
- Average Change [24]: 17.5
- Change [25]: 17 and 10
- Response After AII [25]: 217 and 195
- Control Before AII [25]: 200 and 185
- % Inhibition [26]: 73%
- Average Change [26]: 13.5
- Change [27]: 30
- Response After AII [27]: 235
- Response After AII [28]: 205
- Control Before AII [28]: 205 and 175
- % Inhibition [27]: 40%
- Average Change [27]: 30
